Measurements reported in paper PMC5613062 (Investigational New Drugs, 2017).
“Also recorded” adds a separate entry of the source. Where two headings read alike, the source gives them in different places.

How the values were obtained:
CYP 2D6 = tested on: CYP 2D6; design: method as in earlier work; conditions: at concentrations up to 50uM; ref IB; cited from earlier work
[1] = design: method as in earlier work; conditions: Minipig; ref IB; cited from earlier work
[2] = tested on: SW620 human colorectal cancer xenograft; design: method as in earlier work; conditions: ref IB, cited from earlier work
CYP 3A4 = tested on: CYP 3A4; design: method as in earlier work; conditions: at concentrations up to 50uM; ref IB; cited from earlier work
[3] = design: method as in earlier work; conditions: mice, at dose levels that do not induce maternal toxicity, preliminary; ref IB; cited from earlier work
[4] = design: method as in earlier work; conditions: monkey; ref IB; cited from earlier work
[5] = design: method as in earlier work; conditions: ref IB; cited from earlier work
[6] = design: method as in earlier work; conditions: either formulation of AZD6244; ref IB; cited from earlier work
CYP 2C8 = tested on: CYP 2C8; design: method as in earlier work; conditions: at concentrations up to 50uM; ref IB; cited from earlier work
[7] = design: method as in earlier work; conditions: predominantly via an aneugenic mode of action; ref IB; cited from earlier work
CYP1A2 = tested on: CYP1A2; design: method as in earlier work; conditions: at concentrations up to 50uM; ref IB; cited from earlier work
CYP2C9 = tested on: CYP2C9; design: method as in earlier work; conditions: weak direct inhibitor; ref IB; cited from earlier work
[8] = tested on: Lovo colorectal cancer xenograft; design: method as in earlier work; conditions: ref IB, cited from earlier work
[9] = design: method as in earlier work; conditions: AZD6244-related material, rat and mouse; ref IB; cited from earlier work
[10] = ref Study ARRY-0401, cited from earlier work
expressed CYP isoforms = tested on: expressed CYP isoforms; design: method as in earlier work; conditions: ref IB; listed as AZD6244; cited from earlier work
[11] = cited from earlier work
[12] = Phase I safety/tolerability, DLT and MTD: selumetinib + erlotinib 100 mg orally QD in patients with advanced solid tumors
[13] = design: method as in earlier work; conditions: human; ref IB; cited from earlier work
[14] = design: method as in earlier work; conditions: rat; ref IB; cited from earlier work
[15] = tested on: breast cancer resistance protein (BCRP); design: method as in earlier work; conditions: ref IB; cited from earlier work
[16] = Pharmacokinetics alone and in combination, selumetinib + temsirolimus arm; format: in vivo, human; conditions: human, plasma, iv, geometric mean (% CV); for AUC(0-t): read-out: AUC(0–8); for AUC(0–12): read-out: AUC(0–12); for Cmax: read-out: Cmax
Procedure: PK parameters were derived using non-compartmental analysis. Cmax and tmax were determined by visual inspection of the plasma concentration-time profiles. AUC(0–12) was calculated by the linear trapezoidal rule. Where more than one maximum occurred, the reported value was assigned to the first occurrence.

[17] = tested on: cytochrome P450 (CYP)3A, 1A and 2C; design: method as in earlier work; conditions: human hepatocytes, preliminary in vitro data; ref IB; cited from earlier work
[18] = design: method as in protocol D1532C00004; conditions: protocol rationale for QD dosing; ref protocol D1532C00004; cited from earlier work
[19] = design: method as in earlier work; conditions: mouse, rat and monkey; dosed as free-base or Hyd-Sulfate; ref IB; cited from earlier work
[20] = design: method as in earlier work; conditions: mouse; ref IB; cited from earlier work
[21] = design: method as in earlier work; conditions: dog; ref IB; cited from earlier work
[22] = tested on: Calu-6 human non-small cell lung cancer xenograft; design: method as in earlier work; conditions: AZD6244 3 mg/kg BD; AZD2171 […] QD; ref IB; cited from earlier work
CYP 2C19 = tested on: CYP 2C19; design: method as in earlier work; conditions: at concentrations up to 50uM; ref IB; cited from earlier work
panel of other kinases = tested on: panel of other kinases; design: method as in earlier work; conditions: ref IB; cited from earlier work
[23] = tested on: HCT-116 human colorectal cancer xenograft; design: method as in earlier work; conditions: AZD6244 25 m/kg BD; docetaxel 15 mg/kg once weekly; ref IB; cited from earlier work
p-glycoprotein (PgP) = tested on: p-glycoprotein (PgP); design: method as in earlier work; conditions: ref IB; cited from earlier work
[24] = dosed alone, selumetinib 50 mg cohort (N = 25), temsirolimus 25 mg IV
[25] = dosed alone, selumetinib 75 mg cohort (N = 6), temsirolimus 25 mg IV
[26] = dosed in combination, selumetinib 50 mg BID (N = 22) + temsirolimus 25 mg IV
[27] = dosed in combination, selumetinib 75 mg BID (N = 5) + temsirolimus 25 mg IV

SMILES: Cn1cnc2c(F)c(Nc3ccc(Br)cc3Cl)c(C(=O)NOCCO)cc21 [Selumetinib]
- inhibition of CYP2D6 (CYP 2D6): no inhibition
- Protein binding [1]: 93.7%
- Tumor growth inhibition as a % of control ([2]; AZD6244 25 mg/kg BD, irinotecan 25 mg/kg once weekly, docetaxel 15 mg/kg once weekly): 74 % of control
- Tumor growth inhibition as a % of control ([2]; temozolamide experiment, usual monotherapy schedules, doses not given): 58 % of control
- inhibition of CYP3A4 (CYP 3A4): no inhibition
- reproductive toxicology [3]: adverse effects on embryofetal development and survival
- Protein binding [4]: 97.7%
- mutagenic or clastogenic potential in vitro [5]: no evidence of mutagenic or clastogenic potential
- QTc prolongation [6]: no signal for QTc prolongation
- inhibition of CYP2C8 (CYP 2C8): no inhibition
- mouse micronucleus result [7]: increase in micronucleated immature erythrocytes (MIE)
- inhibition of CYP1A2 (CYP1A2): no inhibition
- IC50 (CYP2C9): 44.7 µM
- Tumor growth inhibition as a % of control ([8]; AZD6244 25 mg/kg BD, Iressa 75 mg/kg QD): 40.2 % of control
- Tumor growth inhibition as a % of control ([8]; rapamycin experiment, usual monotherapy schedules, doses not given): 39 % of control
- binding to melanin [9]: no evidence of binding to melanin
- penetration into the CNS [9]: minimal
- time at which Cmax attained (median) ([10]; post-dose): approximately 1 hour
- half-life (t½), median ([10]; terminal elimination phase): approximately 11 hours
- CYP isoforms metabolizing AZD6244 (expressed CYP isoforms): metabolized by CYP1A2; also recorded: also metabolized by CYP 2C19 and CYP 3A4
- maximum tolerated dose (MTD), monotherapy ([11]; first-in-human trial of selumetinib monotherapy): 75 mg BID
- recommended phase II monotherapy dose ([11]; in vivo): 75 mg BID
- protocol-defined MTD of selumetinib plus erlotinib (part A) ([12]; part A dose escalation, later not tolerated in part B): 50 mg BID
- selumetinib dose recommended for future phase II studies ([12]; plus erlotinib 100 mg QD): 100 mg QD
- MTD of selumetinib in combination with erlotinib ([12]; with erlotinib 100 mg QD): 100 mg QD
- Protein binding [13]: 98.4%
- Protein binding [14]: 99.7%
- interaction with breast cancer resistance protein (BCRP) [15]: substrate but not an inhibitor
- AUC(0-t) [16, 24]: 1840 ng·h/mL
- AUC(0–12) [16, 24]: 2150 ng·h/mL
- Cmax [16, 24]: 666 ng/mL
- AUC(0-t) [16, 25]: 2990 ng·h/mL
- AUC(0–12) [16, 25]: 3370 ng·h/mL
- Cmax [16, 25]: 1240 ng/mL
- AUC(0-t) [16, 26]: 1840 ng·h/mL
- AUC(0–12) [16, 26]: 2130 ng·h/mL
- Cmax [16, 26]: 676 ng/mL
- AUC(0-t) [16, 27]: 2520 ng·h/mL
- AUC(0–12) [16, 27]: 2940 ng·h/mL
- Cmax [16, 27]: 887 ng/mL
- induction of cytochrome P450 (CYP)3A, 1A and 2C [17]: weak inducer
- half-life [18]: ~ 6 hours
- accumulation on multiple dosing [19]: no/minimal accumulation
- Protein binding [20]: 98.9%
- Protein binding [21]: 94.6%
- Tumor growth inhibition as a % of control [22]: 48.8 % of control
- inhibition of CYP2C19 (CYP 2C19): no inhibition
- activity against a panel of other kinases (panel of other kinases): inactive, or only minimally active
- Tumor growth inhibition as a % of control [23]: 64.9 % of control
- interaction with p-glycoprotein (PgP) (p-glycoprotein (PgP)): substrate but not an inhibitor
